Patent US6617459B2, “Azabicyclo derivatives and their use” (NeuroSearch A/S, priority 1999, dated 2003)
Like-named read-outs stand apart in the source and are kept apart here.

Key:
Format in all cases: biochemical, male Wistar rats
[1] = target: T1, dopamine transporter/uptake site (3H-DA uptake, striatal synaptosomes) (Rattus norvegicus, UniProt P23977); test: In vitro inhibition of 3H-dopamine (3H-DA) uptake in striatal synaptosomes
T1 construct: Corpi striati from male Wistar rats (150-200 g) are homogenised; from tissue; host or cells: rat corpus striatum, P2 synaptosomal pellet
T1 sequence (P23977 whole entry): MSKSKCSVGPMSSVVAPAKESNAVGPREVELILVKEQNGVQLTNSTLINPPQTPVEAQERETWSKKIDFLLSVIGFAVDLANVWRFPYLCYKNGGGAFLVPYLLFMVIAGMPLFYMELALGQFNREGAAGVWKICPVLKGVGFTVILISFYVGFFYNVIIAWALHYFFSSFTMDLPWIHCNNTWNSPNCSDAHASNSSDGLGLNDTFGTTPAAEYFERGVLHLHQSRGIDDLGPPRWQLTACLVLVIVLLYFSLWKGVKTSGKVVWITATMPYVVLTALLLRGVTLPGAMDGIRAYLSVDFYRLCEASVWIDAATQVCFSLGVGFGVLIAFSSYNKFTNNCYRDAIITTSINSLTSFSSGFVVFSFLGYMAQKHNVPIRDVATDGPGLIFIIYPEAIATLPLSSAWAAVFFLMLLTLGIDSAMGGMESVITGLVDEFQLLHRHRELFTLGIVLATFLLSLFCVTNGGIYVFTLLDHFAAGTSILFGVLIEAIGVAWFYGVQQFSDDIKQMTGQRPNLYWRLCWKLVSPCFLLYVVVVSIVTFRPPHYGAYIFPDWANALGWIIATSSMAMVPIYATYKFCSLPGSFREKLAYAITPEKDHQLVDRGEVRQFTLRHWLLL
From the text: (§1) The compounds of the invention have been tested for their ability to inhibit reuptake of dopamine(DA) noradrenaline(NA) and serotonine(5-HT) in synaptosomes.
(§2) Specific neurotransmitter transporters/uptake sites on nerve terminals presumably function to terminate neuronal signalling by removing the neurotransmitters dopamine, noradrenaline and serotonine, respectively, from the synaptic cleft. The activity of the transporter integral proteins can be measured in vitro by synaptosomal uptake of ^3H-dopamine, ^3H-noradrenaline and ^3H-serotonine, respectively.
In vitro Inhibition of ^3H-dopamine (^3H-DA) Uptake in Striatal Synaptosomes
(§3) Tissue preparations: Preparations are performed at 0-4° C. unless otherwise indicated. Corpi striati from male Wistar rats (150-200 g) are homogenised for 5-10 sec in 100 volumes of ice-cold 0.32M sucrose containing 1 mM pargyline using an Ultra-Turrax homogenizer. Monoamine oxidase activity will be inhibited in the presence of pargyline. The homogenate is centrifuged at 1000×g for 10 min. The resulting supernatant is then centrifuged at 27,000×g for 50 min and the supernatant is discarded. The pellet (P2) is resuspended in oxygenated (equilibrated with an atmosphere of 96% O2: 4% CO2 for at least 30 min) Krebs-Ringer incubation buffer (8000 ml per g of original tissue) at pH 7.2 containing 122 mM NaCl, 0.16 mM EDTA, 4.8 mM KCl, 12.7 mM Na2HPO4, 3.0 mM NaH2PO4, 1.2 mM MgSO4, 1 mM CaCl2, 10 mM glucose and 1 mM ascorbic acid.
(§4) Assay: Aliquots of 4.0 ml tissue suspension are added to 100 μl of test solution and 100 μl of ^3H-DA (1 nM, final concentration), mixed and incubated for 25 min at 37° C. Non-specific uptake is determined using benztropine (10 μM, final concentration). After incubation the samples are poured directly onto Whatman GF/C glass fibre filters under suction. The filters are then washed three times with 5 ml of ice-cold 0.9% (w/v) NaCl solution. The amount of radioactivity on the filters is determined by conventional liquid scintillation counting. Specific uptake is calculated as the difference between total uptake and non-specific uptake.
(§5) 25-75% inhibition of specific binding must be obtained, before calculation of an IC50.
The test value is given as IC50 (the concentration (μM) of the test substance which inhibits the specific binding of ^3H-DA by 50%).

[2] = target: noradrenaline transporter/uptake site (3H-NA uptake, hippocampal synaptosomes) (Rattus norvegicus, UniProt Q9WTR4); test: In vitro inhibition of 3H-noradrenaline (3H-NA) uptake in hippocampal synaptosomes
From the text: as §1, §2
In vitro Inhibition of ^3H-noradrenaline (^3H-NA) Uptake in Hippocampal Synaptosomes
as §3, with “Tissue preparation:” for “Tissue preparations:”, “indicated. Hippocampi” for “indicated. Corpi striati”, “buffer (2000” for “buffer (8000”, “per […]” for “per g”, “MgSO4, 0.97” for “MgSO4, 1”
as §4, with “^3H-NA” for “^3H-DA”, “90” for “25”, “desipramine (1” for “benztropine (10”
as §5
The test value is given as IC50 (the concentration (μM) of the test substance which inhibits the specific binding of ^3H-NA by 50%).

[3] = target: T2, serotonine transporter/uptake site (3H-5-HT uptake, cortical synaptosomes) (Rattus norvegicus, UniProt P31652); test: In vitro inhibition of 3H-5-hydroxytryptamine (3H-5-HT, serotonine) uptake in cortical synaptosomes; settings: for IC50: cortical synaptosomes; for greater potency as inhibitors of serotonine uptake than of either noradrenaline or dopamine uptake: selectivity, 5-HT uptake vs NA or DA uptake, in vitro
T2 construct: Cerebral cortices from male Wistar rats (150-200 g) are homogenised; from tissue; host or cells: rat cerebral cortex, P2 synaptosomal pellet
T2 sequence (P31652 whole entry): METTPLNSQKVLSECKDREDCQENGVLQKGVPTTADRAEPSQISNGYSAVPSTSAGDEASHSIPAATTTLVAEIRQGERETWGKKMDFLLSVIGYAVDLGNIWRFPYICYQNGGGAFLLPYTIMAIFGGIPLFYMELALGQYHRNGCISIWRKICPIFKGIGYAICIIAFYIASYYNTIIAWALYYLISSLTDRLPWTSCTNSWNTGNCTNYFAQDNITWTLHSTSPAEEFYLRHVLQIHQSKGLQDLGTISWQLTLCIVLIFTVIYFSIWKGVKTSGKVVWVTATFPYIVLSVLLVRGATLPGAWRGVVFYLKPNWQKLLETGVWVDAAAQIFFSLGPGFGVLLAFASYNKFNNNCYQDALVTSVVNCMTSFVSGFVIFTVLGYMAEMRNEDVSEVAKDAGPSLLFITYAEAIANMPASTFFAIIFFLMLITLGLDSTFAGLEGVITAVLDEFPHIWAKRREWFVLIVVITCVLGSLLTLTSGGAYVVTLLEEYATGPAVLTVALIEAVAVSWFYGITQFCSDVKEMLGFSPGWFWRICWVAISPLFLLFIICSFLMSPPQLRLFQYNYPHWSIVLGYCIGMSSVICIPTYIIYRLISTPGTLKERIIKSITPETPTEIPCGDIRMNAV
From the text: as §1, §2
In vitro Inhibition of ^3H-5-hydroxytryptamine (^3H-5-HT, Serotonine) Uptake in Cortical Synaptosomes
as §3, with “Preparation:” for “preparations:”, “Cerebral cortices” for “Corpi striati”, “(1000” for “(8000”
as §4, with “^3H-5-HT” for “^3H-DA”, “30” for “25”, “citalopram (1” for “benztropine (10”
as §5
The test value is given as IC50 (the concentration (μM) of the test substance which inhibits the specific binding of ^3H-5-HT by 50%).

[4] = DA-uptake IC50, Table 1, 3H-DA 1 nM, 25 min at 37° C.
[5] = read-out: NA-uptake IC50, Table 1, 3H-NA 1 nM, 90 min at 37° C.
[6] = 5-HT-uptake IC50, Table 1, 3H-5-HT 1 nM, 30 min at 37° C.
[7] = DA-uptake IC50, Table 2, value ± spread
[8] = read-out: NA-uptake IC50, Table 2, value ± spread
[9] = 5-HT-uptake IC50, Table 2, value ± spread

| SMILES | IC50 [1, 4] [nM] | IC50 [2, 5] [nM] | IC50 [3, 6] [nM] | IC50 [1, 7] [nM] | IC50 [2, 8] [nM] | IC50 [3, 9] [nM] | greater potency as inhibitors of serotonine uptake than of either noradrenaline or dopamine uptake [3] [fold] |
| --- | --- | --- | --- | --- | --- | --- | --- |
| CN1C2C=C(c3ccc(C#N)cc3)CC1CC2 (racemic) [(±)-3-(4-cyanophenyl)-8-methyl-8-azabicyclo(3.2.1]oct-2-ene] | 18000 | 4900 | 47 |  |  |  |  |
| CN1C2C=C(c3ccc([N+](=O)[O-])cc3)CC1CC2 (racemic) [(±)-3-(4-nitrophenyl)-8-methyl-8-azabicyclo[3.2.1]oct-2-ene] | 1500 | 500 | 16 |  |  |  |  |
| FC(F)(F)Oc1ccc(C2=CC3CCC(C2)N3)cc1 (racemic) [(±)-3-(4-trifluoromethoxyphenyl)-8-azabicyclo[3.2.1]oct-2-ene (racemate), (±)-3-(4-trifluoromethoxyphenyl)-8-azabicyclo[3.2.1]oct-2-ene] |  |  |  | 18700 ± 3500 | 15600 ± 3500 | 4.8 ± 0.6 | 3000 |
| CN1C2C=C(c3ccc(OC(F)(F)F)cc3)CC1CC2 (racemic) [(±)-3-(4-trifluoromethoxyphenyl)-8-methyl-8-azabicyclo[3.2.1]oct-2-ene] | 22000 | 8000 | 3.6 | 21300 ± 1200 | 12000 ± 2300 | 3.5 ± 0.3 | 3000 |
| FC(F)(F)Oc1ccc(C2=CC3CCC(C2)N3)cc1 (single isomer, unassigned) [3-(4-trifluoromethoxyphenyl)-8-azabicyclo[3.2.1]oct-2-ene (enantiomer A*), 3-(4-trifluoromethoxyphenyl)-8-azabicyclo[3.2.1]oct-2-ene] |  |  |  |  |  | 22 ± 12 |  |
| FC(F)(F)Oc1ccc(C2=CC3CCC(C2)N3)cc1 (single isomer, unassigned) [3-(4-trifluoromethoxyphenyl)-8-azabicyclo[3.2.1]oct-2-ene (enantiomer B*), 3-(4-trifluoromethoxyphenyl)-8-azabicyclo[3.2.1]oct-2-ene] |  |  |  |  |  | 12 ± 6 |  |
